Measured values as given in patent WO2019242687A1, “1,3-dioxane-4,6-dione compound, and preparation method, pharmaceutical composition, and application thereof” (Shanghai Institute of Materia Medica of CAS, priority 2018, dated 2018).
Numbering of substitutions follows the chain as printed. Entries after “also recorded” stand apart in the source; their conditions may differ.

Assays:
Format in all cases: biochemical
SIRT1 = target: T1, SIRT1 (Homo sapiens, UniProt Q96EB6); test: SIRT1 enzyme activity test (deacetylase inhibition)
T1 sequence (Q96EB6 1-747): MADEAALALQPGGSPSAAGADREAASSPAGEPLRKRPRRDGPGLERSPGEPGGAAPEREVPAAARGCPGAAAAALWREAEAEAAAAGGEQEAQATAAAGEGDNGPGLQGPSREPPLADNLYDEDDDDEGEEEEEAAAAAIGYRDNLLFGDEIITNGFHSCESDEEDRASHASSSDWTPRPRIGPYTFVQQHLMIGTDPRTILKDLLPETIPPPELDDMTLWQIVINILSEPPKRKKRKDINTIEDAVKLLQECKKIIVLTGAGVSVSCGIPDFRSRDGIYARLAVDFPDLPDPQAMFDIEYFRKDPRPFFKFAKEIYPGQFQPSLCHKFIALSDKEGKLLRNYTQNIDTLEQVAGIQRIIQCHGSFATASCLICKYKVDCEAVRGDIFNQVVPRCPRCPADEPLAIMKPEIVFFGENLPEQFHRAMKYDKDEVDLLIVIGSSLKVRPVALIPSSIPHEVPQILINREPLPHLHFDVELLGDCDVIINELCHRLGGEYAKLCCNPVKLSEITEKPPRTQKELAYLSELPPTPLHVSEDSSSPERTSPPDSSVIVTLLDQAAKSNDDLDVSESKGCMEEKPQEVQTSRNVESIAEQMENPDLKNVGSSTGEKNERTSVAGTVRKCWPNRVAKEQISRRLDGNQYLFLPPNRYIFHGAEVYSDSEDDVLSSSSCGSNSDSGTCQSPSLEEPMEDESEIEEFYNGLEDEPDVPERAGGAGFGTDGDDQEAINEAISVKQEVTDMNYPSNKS

SIRT1 F273L = target: T2, SIRT1 F273L (Homo sapiens, UniProt Q96EB6, F273L); test: Inhibitory constant on SIRT1 mutant F273L
T2 construct: made in house
T2 sequence (Q96EB6 1-747 F273L): T1 sequence (Q96EB6 1-747) with F273L

SIRT1 F414A = target: T3, SIRT1 F414A (Homo sapiens, UniProt Q96EB6, F414A); test: Inhibitory constant on SIRT1 mutant F414A
T3 construct: made in house
T3 sequence (Q96EB6 1-747 F414A): T1 sequence (Q96EB6 1-747) with F414A

With `COc1cc(C=C2C(=O)OC(c3ccccc3)OC2=O)cc(Br)c1O` (stereo not drawn) [Compound S3, 5-(3-bromo-4-hydroxy-5-methoxybenzylidene) -2-phenyl-1,3-dioxane-4,6-dione] the “concentration dependence of SIRT1 inhibition” value (SIRT1; Figure 1, in vitro) was “以浓度依赖性方式抑制SIRT1酶活; also recorded: inhibits SIRT1 activity in a concentration-dependent manner”, the IC50 (SIRT1; Table 2, 1 μM SIRT1, 500 μM NAD+, 10 μM substrate peptide, 37 °C, 30 min) was 1310 ± 260 nM and the “Inhibition of SIRT1 deacylation (IC50)” value (SIRT1; Table 3, SITR1 [sic], 1 μM SIRT1, 500 μM NAD+, 10 μM substrate peptide) was 1.31 ± 0.26. The Ki (SIRT1 F273L) was 850 nM, the Ki (SIRT1 F414A) was 25500 nM and the “effect of mutation on inhibitory activity of compound” value (SIRT1 F414A; compared with the other mutants) was “影响最大”.
